Source: ChEMBL document CHEMBL1201862, “PubChem BioAssay data set” (2004)
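Grown in 96-well plates, cells were treated for 48 hours with each compound at five concentrations. Insufficient inhibition: endpoint recorded as highest concentration tested. GI50 marks 50% less growth.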 The source made the active and inactive calls. Cut-off read from the data, not from the text of the source: active = GI50 up to about 1.1 µM and inactive = higher.

What was measured:
Assay in all cases: NCI anticancer screen, dose series, 48 h
[1] = test system: A549
[2] = test system: CAKI-1
[3] = test system: EKVX
[4] = test system: IGROV-1
[5] = test system: K562
[6] = test system: KM-20L2
[7] = test system: OVCAR-5
[8] = test system: RPMI-8226
[9] = test system: RXF 393
[10] = test system: SF-268
[11] = test system: SR
[12] = test system: SW-620
[13] = test system: UACC-62
[14] = test system: UO-31
[15] = test system: HOP-62
[16] = test system: OVCAR-3
[17] = test system: SK-OV-3
[18] = test system: A498

Measured: GI50

COC(=O)C(=O)C(C(=O)C(=O)Nc1cc(C)ccc1C)c1nc2ccc(C(=O)c3ccccc3)cc2nc1O (stereo not given)
inactive: [1] > 100 µM | [2] 27.5 µM | [3] > 100 µM | [4] > 100 µM | [5] 31 µM | [6] > 100 µM | [7] 43.1 µM | [8] 94.2 µM | [9] 46.3 µM | [10] > 100 µM | [11] 68.5 µM | [12] > 100 µM | [13] 37.2 µM | [14] 52.7 µM

CC(C)(C)[C@H]1CO[C@]2(c3ccccc3)[C@@H]3C[C@@H]3C(=O)N12
inactive: [1] > 100 µM | [2] > 100 µM | [3] > 100 µM | [15] > 100 µM | [4] > 100 µM | [5] > 10 µM | [6] > 100 µM | [16] > 100 µM | [7] > 100 µM | [8] > 100 µM | [9] > 100 µM | [10] > 100 µM | [17] > 100 µM | [11] > 100 µM | [12] > 100 µM | [13] > 100 µM | [14] > 100 µM

CN(C(=O)C12C3C4C1C1C2C3C41I)C(C)(C)C (stereo not given)
inactive: [18] 53.8 µM | [1] > 100 µM | [2] > 100 µM | [3] 64.9 µM | [15] > 100 µM | [4] > 90.8 µM | [6] > 89.3 µM | [16] 70.1 µM | [7] > 100 µM | [8] > 100 µM | [10] > 100 µM | [17] > 100 µM | [11] > 29.4 µM | [12] > 100 µM | [13] > 83 µM | [14] > 67.1 µM

Nc1ccc2ncc(NCc3ccc(F)cc3)nc2c1
inactive: [1] > 100 µM | [2] 71.9 µM | [3] 62.7 µM | [15] 40.6 µM | [5] 87.9 µM | [6] > 100 µM | [16] 38.9 µM | [7] > 100 µM | [8] 62.2 µM | [9] 34.4 µM | [10] 48.2 µM | [17] 85.9 µM | [11] 70 µM | [12] > 100 µM | [13] 54.2 µM | [14] 16.4 µM

Cc1c(N)c(C#N)c2n(C)c3ncccc3n2c1=O
inactive: [1] > 100 µM | [2] > 100 µM | [3] > 100 µM | [15] > 100 µM | [5] > 100 µM | [6] > 100 µM | [16] > 100 µM | [8] > 100 µM | [9] > 100 µM | [10] > 100 µM | [17] > 100 µM | [11] > 100 µM | [12] > 100 µM | [13] > 100 µM | [14] > 100 µM

CCOC(=O)C1(C(=O)OCC)C(C(C)(C)C)=C(C)c2ccccc21
inactive: [1] 18.1 µM | [3] 20.1 µM | [15] 20.3 µM | [4] 14.5 µM | [5] 8.55 µM | [6] 13.5 µM | [16] 11.9 µM | [7] 14.4 µM | [8] 7.89 µM | [9] 13.5 µM | [10] 16.8 µM | [17] 24.2 µM | [11] 39.1 µM | [12] 15.3 µM | [13] 12.9 µM | [14] 15.4 µM

COC(=O)C1=CC2C(=O)OC1CC2C#N (stereo not given)
inactive: [18] > 100 µM | [1] > 100 µM | [2] > 100 µM | [15] > 100 µM | [4] > 100 µM | [5] > 100 µM | [6] > 100 µM | [16] > 100 µM | [8] > 100 µM | [10] > 100 µM | [17] > 100 µM | [11] > 100 µM | [12] > 100 µM | [13] > 100 µM | [14] > 100 µM

C=C1CC(CC(=O)C(C)CC2CC(=C)C(=O)O2)OC1=O (stereo not given)
inactive: [18] 46.5 µM | [1] 52 µM | [3] 52.2 µM | [15] > 100 µM | [4] 32.8 µM | [5] 22.7 µM | [6] 33 µM | [16] 17.7 µM | [7] 65.9 µM | [9] 18.7 µM | [10] 22.4 µM | [17] > 100 µM | [11] 3.3 µM | [12] 11 µM | [13] 15.8 µM | [14] > 100 µM

CN(C)CC1CCC(CN(C)C)C1=NO (stereo not given)
inactive: [1] > 100 µM | [2] > 100 µM | [3] > 100 µM | [15] > 100 µM | [4] > 100 µM | [5] > 100 µM | [6] > 100 µM | [16] > 100 µM | [7] > 100 µM | [8] > 100 µM | [9] > 100 µM | [10] > 100 µM | [11] 29 µM | [12] > 100 µM | [13] > 100 µM | [14] > 100 µM

c1cncc(C2c3[nH]c4ccccc4c3CCN2CCCN2CCCCC2)c1 (stereo not given)
inactive: [18] > 100 µM | [1] > 100 µM | [2] > 100 µM | [3] > 100 µM | [15] > 100 µM | [4] > 100 µM | [5] > 100 µM | [6] > 100 µM | [16] 51.1 µM | [7] > 100 µM | [8] > 100 µM | [9] 53.6 µM | [17] > 100 µM | [11] > 100 µM | [12] > 100 µM | [13] 92.9 µM | [14] 81.1 µM

CCCCCCCC(=O)OCC1OC(n2cc(F)c(=O)[nH]c2=O)C(NC(=O)OCc2ccccc2)C(O)C1O (stereo not given)
inactive: [18] > 100 µM | [1] > 100 µM | [2] > 100 µM | [3] > 100 µM | [15] > 100 µM | [4] > 100 µM | [5] 28.2 µM | [6] 47.1 µM | [16] > 100 µM | [8] 26.4 µM | [9] > 100 µM | [10] 46.9 µM | [17] > 100 µM | [11] 31.8 µM | [12] > 100 µM | [13] 32.1 µM | [14] > 100 µM

O=C1c2ccccc2C(=O)c2[nH]c(Cc3ccc(F)cc3)nc21
inactive: [1] 19.5 µM | [2] 19.7 µM | [3] 19.2 µM | [15] 21.9 µM | [4] 12.5 µM | [5] 37.2 µM | [6] 17.1 µM | [16] 5.4 µM | [8] 22.8 µM | [9] 6.97 µM | [10] 21.8 µM | [11] 21.6 µM | [12] 14.5 µM | [13] 15.5 µM | [14] 29.6 µM
